Measurements: ChEMBL document CHEMBL1150678, “Bioactive sterols from the starfish Certonardoa semiregularis” (2003)
In brackets after ≈: the same amount, converted by molar mass.

How the values were obtained:
Escherichia coli [1] = experiment: Antimicrobial activity against Escherichia coli TEM isolate after 18 hrs; assay type: functional
Escherichia coli [2] = experiment: Antimicrobial activity against Escherichia coli 078 isolate after 18 hrs; assay type: functional
XF498 = experiment: Cytotoxicity against human XF498 cells; assay type: functional; conditions: read-out: ED50 (the source's name)
Enterobacter cloacae [3] = experiment: Antimicrobial activity against Enterobacter cloacae P99 after 18 hrs; assay type: functional
SK-MEL-2 = experiment: Cytotoxicity against human SK-MEL-2 cells; assay type: functional; conditions: read-out: ED50 (the source's name)
Enterobacter cloacae [4] = experiment: Antimicrobial activity against Enterobacter cloacae 1321E after 18 hrs; assay type: functional
SK-OV-3 = experiment: Cytotoxicity against human SKOV3 cells; assay type: functional; conditions: read-out: ED50 (the source's name)
Pseudomonas aeruginosa [5] = experiment: Antimicrobial activity against Pseudomonas aeruginosa 1771 isolate after 18 hrs; assay type: functional
Staphylococcus aureus [6] = experiment: Antimicrobial activity against Staphylococcus aureus SG511 isolate after 18 hrs; assay type: functional
Pseudomonas aeruginosa [7] = experiment: Antimicrobial activity against Pseudomonas aeruginosa 1592E isolate after 18 hrs; assay type: functional
Pseudomonas aeruginosa [8] = experiment: Antimicrobial activity against Pseudomonas aeruginosa 9027 isolate after 18 hrs; assay type: functional
A549 = experiment: Cytotoxicity against human A549 cells; assay type: functional; conditions: read-out: ED50 (the source's name)
Escherichia coli [9] = experiment: Antimicrobial activity against Escherichia coli DC2 isolate after 18 hrs; assay type: functional
Enterococcus faecium = experiment: Antimicrobial activity against Streptococcus faecium MD8b isolate after 18 hrs; assay type: functional
Escherichia coli [10] = experiment: Antimicrobial activity against Escherichia coli 1507E isolate after 18 hrs; assay type: functional
Escherichia coli [11] = experiment: Antimicrobial activity against Escherichia coli DC0 isolate after 18 hrs; assay type: functional
Staphylococcus aureus [12] = experiment: Antimicrobial activity against Staphylococcus aureus 503 isolate after 18 hrs; assay type: functional
Salmonella typhimurium = experiment: Antimicrobial activity against Salmonella Typhimurium after 18 hrs; assay type: functional, Salmonella enterica subsp. enterica serovar Typhimurium; conditions: Salmonella enterica
Pseudomonas aeruginosa [13] = experiment: Antimicrobial activity against Pseudomonas aeruginosa 1771M isolate after 18 hrs; assay type: functional
Staphylococcus aureus [14] = experiment: Antimicrobial activity against Staphylococcus aureus 285 isolate after 18 hrs; assay type: functional
Streptococcus pyogenes [15] = experiment: Antimicrobial activity against Streptococcus pyogenes 308A isolate after 18 hrs; assay type: functional
HCT-15 = experiment: Cytotoxicity against human HCT15 cells; assay type: functional; conditions: read-out: ED50 (the source's name)
Streptococcus pyogenes [16] = experiment: Antimicrobial activity against Streptococcus pyogenes 77A isolate after 18 hrs; assay type: functional
Klebsiella aerogenes = experiment: Antimicrobial activity against Klebsiella aerogenes 1522E after 18 hrs; assay type: functional
Klebsiella oxytoca = experiment: Antimicrobial activity against Klebsiella oxytoca 1082E after 18 hrs; assay type: functional

C=C(CC[C@@H](C)[C@H]1C[C@H](O)[C@H]2[C@@H]3C[C@@H](O)[C@H]4C[C@@H](O)CC[C@]4(C)[C@H]3CC[C@@]21C)[C@H](C)CO [CERTONARDOSTEROL E]
MIC (Escherichia coli [1]): > 25 µg/mL | MIC (Escherichia coli [2]): > 25 µg/mL | EC50 (XF498): 4.1 µg/mL (≈ 9.14 µM) | MIC (Enterobacter cloacae [3]): > 25 µg/mL | EC50 (SK-MEL-2): 4.1 µg/mL (≈ 9.14 µM) | MIC (Enterobacter cloacae [4]): > 25 µg/mL | EC50 (SK-OV-3): 4.9 µg/mL (≈ 10.9 µM) | MIC (Pseudomonas aeruginosa [5]): > 25 µg/mL | MIC (Staphylococcus aureus [6]): > 25 µg/mL | MIC (Pseudomonas aeruginosa [7]): > 25 µg/mL | MIC (Pseudomonas aeruginosa [8]): > 25 µg/mL | EC50 (A549): 3.9 µg/mL (≈ 8.69 µM) | MIC (Escherichia coli [9]): > 25 µg/mL | MIC (Enterococcus faecium): > 25 µg/mL | MIC (Escherichia coli [10]): > 25 µg/mL | MIC (Escherichia coli [11]): > 25 µg/mL | MIC (Staphylococcus aureus [12]): > 25 µg/mL | MIC (Salmonella typhimurium): > 25 µg/mL | MIC (Pseudomonas aeruginosa [13]): > 25 µg/mL | MIC (Staphylococcus aureus [14]): > 25 µg/mL | MIC (Streptococcus pyogenes [15]): 25 µg/mL (≈ 55.7 µM) | EC50 (HCT-15): 4.2 µg/mL (≈ 9.36 µM) | MIC (Streptococcus pyogenes [16]): > 25 µg/mL | MIC (Klebsiella aerogenes): > 25 µg/mL | MIC (Klebsiella oxytoca): > 25 µg/mL

CC(C)[C@@H](O)CC[C@@H](C)[C@H]1C[C@@H](O)[C@H]2[C@@H]3C[C@H](O)[C@H]4C[C@@H](O)CC[C@]4(C)[C@H]3CC[C@@]21C [CERTONARDOSTEROL F]
MIC (Escherichia coli [1]): > 25 µg/mL | MIC (Escherichia coli [2]): > 25 µg/mL | EC50 (XF498): 4.3 µg/mL (≈ 9.85 µM) | MIC (Enterobacter cloacae [3]): > 25 µg/mL | EC50 (SK-MEL-2): 3.8 µg/mL (≈ 8.7 µM) | MIC (Enterobacter cloacae [4]): > 25 µg/mL | EC50 (SK-OV-3): 4.4 µg/mL (≈ 10.1 µM) | MIC (Pseudomonas aeruginosa [5]): 25 µg/mL (≈ 57.3 µM) | MIC (Staphylococcus aureus [6]): > 25 µg/mL | MIC (Pseudomonas aeruginosa [7]): 25 µg/mL (≈ 57.3 µM) | MIC (Pseudomonas aeruginosa [8]): > 25 µg/mL | EC50 (A549): 3.8 µg/mL (≈ 8.7 µM) | MIC (Escherichia coli [9]): > 25 µg/mL | MIC (Enterococcus faecium): > 25 µg/mL | MIC (Escherichia coli [10]): > 25 µg/mL | MIC (Escherichia coli [11]): > 25 µg/mL | MIC (Staphylococcus aureus [12]): > 25 µg/mL | MIC (Salmonella typhimurium): > 25 µg/mL | MIC (Pseudomonas aeruginosa [13]): > 25 µg/mL | MIC (Staphylococcus aureus [14]): > 25 µg/mL | MIC (Streptococcus pyogenes [15]): 25 µg/mL (≈ 57.3 µM) | EC50 (HCT-15): 5.5 µg/mL (≈ 12.6 µM) | MIC (Streptococcus pyogenes [16]): 25 µg/mL (≈ 57.3 µM) | MIC (Klebsiella aerogenes): > 25 µg/mL | MIC (Klebsiella oxytoca): > 25 µg/mL

CC(C)[C@@H](O)/C=C/[C@@H](C)[C@H]1C[C@@H](O)[C@H]2[C@@H]3C[C@H](O)[C@H]4C[C@@H](O)CC[C@]4(C)[C@H]3CC[C@@]21C [CERTONARDOSTEROL G]
MIC (Escherichia coli [1]): > 25 µg/mL | MIC (Escherichia coli [2]): > 25 µg/mL | EC50 (XF498): 3.7 µg/mL (≈ 8.51 µM) | MIC (Enterobacter cloacae [3]): > 25 µg/mL | EC50 (SK-MEL-2): 3.4 µg/mL (≈ 7.82 µM) | MIC (Enterobacter cloacae [4]): > 25 µg/mL | EC50 (SK-OV-3): 3.6 µg/mL (≈ 8.28 µM) | MIC (Pseudomonas aeruginosa [5]): 12.5 µg/mL (≈ 28.8 µM) | MIC (Staphylococcus aureus [6]): > 25 µg/mL | MIC (Pseudomonas aeruginosa [7]): > 25 µg/mL | MIC (Pseudomonas aeruginosa [8]): > 25 µg/mL | EC50 (A549): 3.6 µg/mL (≈ 8.28 µM) | MIC (Escherichia coli [9]): > 25 µg/mL | MIC (Enterococcus faecium): > 25 µg/mL | MIC (Escherichia coli [10]): > 25 µg/mL | MIC (Escherichia coli [11]): > 25 µg/mL | MIC (Staphylococcus aureus [12]): > 25 µg/mL | MIC (Salmonella typhimurium): > 25 µg/mL | MIC (Pseudomonas aeruginosa [13]): 25 µg/mL (≈ 57.5 µM) | MIC (Staphylococcus aureus [14]): > 25 µg/mL | MIC (Streptococcus pyogenes [15]): 12.5 µg/mL (≈ 28.8 µM) | EC50 (HCT-15): 4 µg/mL (≈ 9.2 µM) | MIC (Streptococcus pyogenes [16]): > 25 µg/mL | MIC (Klebsiella aerogenes): > 25 µg/mL | MIC (Klebsiella oxytoca): > 25 µg/mL
